According to ChEMBL document CHEMBL3822377, “Locking PDK1 in DFG-out conformation through 2-oxo-indole containing molecules: Another tools to fight glioblastoma” (Eur J Med Chem, 2016):
Calls of active or inactive are those of the source. No cut-off for these calls is given here.

Assays:
[1] = molecular target: RAC-alpha serine/threonine-protein kinase (Homo sapiens) (UniProt P31749); test: Inhibition of His-tagged full-length human AKT1 expressed in baculovirus system at 100 nM by Z-lyte assay
Chain of RAC-alpha serine/threonine-protein kinase (Homo sapiens) (P31749 whole entry): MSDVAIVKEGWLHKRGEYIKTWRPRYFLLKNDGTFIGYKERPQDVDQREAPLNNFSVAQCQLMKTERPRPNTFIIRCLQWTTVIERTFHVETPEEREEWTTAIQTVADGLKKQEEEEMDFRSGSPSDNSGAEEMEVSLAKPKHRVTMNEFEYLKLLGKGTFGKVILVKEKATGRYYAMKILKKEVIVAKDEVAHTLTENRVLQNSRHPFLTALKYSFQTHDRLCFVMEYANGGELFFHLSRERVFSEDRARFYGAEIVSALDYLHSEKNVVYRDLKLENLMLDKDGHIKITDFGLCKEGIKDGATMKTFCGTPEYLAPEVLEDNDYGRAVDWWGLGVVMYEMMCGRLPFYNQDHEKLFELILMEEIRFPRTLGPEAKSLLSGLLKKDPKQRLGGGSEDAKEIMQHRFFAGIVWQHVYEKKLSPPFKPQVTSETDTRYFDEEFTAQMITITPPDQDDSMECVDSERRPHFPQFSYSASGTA

[2] = molecular target: AMP-activated protein kinase, AMPK (Homo sapiens) (UniProt P54646+O43741+P54619+Q9UGJ0+Q9Y478+Q13131+Q9UGI9); test: Inhibition of GST/His-tagged full-length human recombinant AMPK A1/B1/G1 expressed in baculovirus system at 100 nM by Z-lyte assay
[3] = molecular target: Protein kinase C beta type (Homo sapiens) (UniProt P05771); test: Inhibition of full-length human PRKCB1 expressed in baculovirus system at 100 nM by Z-lyte assay
Chain of Protein kinase C beta type (Homo sapiens) (P05771 2-671 limits assumed): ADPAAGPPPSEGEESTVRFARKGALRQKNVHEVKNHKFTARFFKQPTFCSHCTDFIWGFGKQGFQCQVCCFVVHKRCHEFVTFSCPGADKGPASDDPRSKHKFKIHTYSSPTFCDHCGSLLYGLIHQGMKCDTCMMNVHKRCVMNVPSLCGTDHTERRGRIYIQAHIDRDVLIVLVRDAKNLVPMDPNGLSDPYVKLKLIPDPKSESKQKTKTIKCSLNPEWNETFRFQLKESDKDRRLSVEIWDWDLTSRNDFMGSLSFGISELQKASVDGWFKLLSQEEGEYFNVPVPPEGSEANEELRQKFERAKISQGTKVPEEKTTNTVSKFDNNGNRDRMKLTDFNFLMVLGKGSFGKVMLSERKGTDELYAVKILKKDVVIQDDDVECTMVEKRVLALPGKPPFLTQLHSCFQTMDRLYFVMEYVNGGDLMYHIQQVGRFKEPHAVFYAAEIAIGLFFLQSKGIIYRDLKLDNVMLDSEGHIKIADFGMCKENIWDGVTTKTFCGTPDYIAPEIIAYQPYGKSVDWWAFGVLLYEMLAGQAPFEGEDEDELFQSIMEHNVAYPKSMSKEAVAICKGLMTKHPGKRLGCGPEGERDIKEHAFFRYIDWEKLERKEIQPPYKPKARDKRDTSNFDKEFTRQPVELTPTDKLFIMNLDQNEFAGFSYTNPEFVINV

[4] = system: U-87 MG; test: Induction of apoptosis in human U87MG cells assessed as late apoptotic cells by measuring phosphatidylserine externalisation at 10 uM after 72 hrs in presence of 7-amino-actinomysin by AnnexinV/FITC staining-based flow cytometry (reference value: 4.46%); type: functional, U-87MG ATCC
[5] = molecular target: Calcium/calmodulin-dependent protein kinase type II subunit alpha (Homo sapiens) (UniProt Q9UQM7); test: Inhibition of His-tagged full-length human CaMKII alpha expressed in baculovirus system at 100 nM by Z-lyte assay
Chain of Calcium/calmodulin-dependent protein kinase type II subunit alpha (Homo sapiens) (Q9UQM7 whole entry, canonical isoform): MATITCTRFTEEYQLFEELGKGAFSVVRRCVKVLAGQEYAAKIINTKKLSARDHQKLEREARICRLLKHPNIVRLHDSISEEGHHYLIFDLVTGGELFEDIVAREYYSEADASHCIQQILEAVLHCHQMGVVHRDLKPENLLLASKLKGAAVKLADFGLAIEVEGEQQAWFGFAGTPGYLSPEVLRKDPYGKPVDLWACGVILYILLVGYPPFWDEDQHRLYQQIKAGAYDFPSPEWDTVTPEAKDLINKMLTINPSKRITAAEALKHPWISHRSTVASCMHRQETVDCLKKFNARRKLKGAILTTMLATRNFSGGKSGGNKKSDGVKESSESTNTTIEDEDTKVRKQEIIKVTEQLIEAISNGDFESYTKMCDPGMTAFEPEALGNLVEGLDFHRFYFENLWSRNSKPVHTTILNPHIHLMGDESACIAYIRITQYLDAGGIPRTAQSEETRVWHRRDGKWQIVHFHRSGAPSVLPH

[6] = molecular target: Casein kinase I isoform gamma-1 (Homo sapiens) (UniProt Q9HCP0); test: Inhibition of GST-tagged full-length human CSNK1G1 expressed in baculovirus system at 100 nM by Z-lyte assay
Chain of Casein kinase I isoform gamma-1 (Homo sapiens) (Q9HCP0 whole entry, looked up, canonical isoform): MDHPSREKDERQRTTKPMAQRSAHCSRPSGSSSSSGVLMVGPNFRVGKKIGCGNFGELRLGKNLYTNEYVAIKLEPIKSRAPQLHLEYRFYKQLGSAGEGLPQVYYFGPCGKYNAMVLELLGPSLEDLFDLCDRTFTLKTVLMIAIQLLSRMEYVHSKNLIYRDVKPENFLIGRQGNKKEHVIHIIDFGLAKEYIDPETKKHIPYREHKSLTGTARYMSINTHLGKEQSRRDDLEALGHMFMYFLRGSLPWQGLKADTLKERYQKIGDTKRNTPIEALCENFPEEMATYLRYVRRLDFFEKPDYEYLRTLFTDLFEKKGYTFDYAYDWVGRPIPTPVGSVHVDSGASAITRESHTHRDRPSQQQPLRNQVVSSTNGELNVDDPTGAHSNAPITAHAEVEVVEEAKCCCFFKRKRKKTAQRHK

[7] = Induction of apoptosis in human GSC cells assessed as live cells by measuring phosphatidylserine externalisation at 10 uM after 7 days by AnnexinV/FITC staining-based flow cytometry (reference value: 87.49%); type: functional
[8] = molecular target: Tyrosine-protein kinase JAK1 (Homo sapiens) (UniProt P23458); test: Inhibition of cytosolic GST-tagged full-length recombinant human JAK1 expressed in baculovirus system at 100 nM by Z-lyte assay
[9] = molecular target: Phosphatidylinositol 4,5-bisphosphate 3-kinase catalytic subunit gamma isoform (Homo sapiens) (UniProt P48736); test: Inhibition of His-tagged full-length human PIK3CG expressed in baculovirus system at 100 nM by adapta assay
[10] = molecular target: Serine/threonine-protein kinase MRCK alpha (Homo sapiens) (UniProt Q5VT25); test: Inhibition of His-tagged human CDC42 BPA expressed in baculovirus system at 100 nM by Z-lyte assay
Chain of Serine/threonine-protein kinase MRCK alpha (Homo sapiens) (Q5VT25 whole entry): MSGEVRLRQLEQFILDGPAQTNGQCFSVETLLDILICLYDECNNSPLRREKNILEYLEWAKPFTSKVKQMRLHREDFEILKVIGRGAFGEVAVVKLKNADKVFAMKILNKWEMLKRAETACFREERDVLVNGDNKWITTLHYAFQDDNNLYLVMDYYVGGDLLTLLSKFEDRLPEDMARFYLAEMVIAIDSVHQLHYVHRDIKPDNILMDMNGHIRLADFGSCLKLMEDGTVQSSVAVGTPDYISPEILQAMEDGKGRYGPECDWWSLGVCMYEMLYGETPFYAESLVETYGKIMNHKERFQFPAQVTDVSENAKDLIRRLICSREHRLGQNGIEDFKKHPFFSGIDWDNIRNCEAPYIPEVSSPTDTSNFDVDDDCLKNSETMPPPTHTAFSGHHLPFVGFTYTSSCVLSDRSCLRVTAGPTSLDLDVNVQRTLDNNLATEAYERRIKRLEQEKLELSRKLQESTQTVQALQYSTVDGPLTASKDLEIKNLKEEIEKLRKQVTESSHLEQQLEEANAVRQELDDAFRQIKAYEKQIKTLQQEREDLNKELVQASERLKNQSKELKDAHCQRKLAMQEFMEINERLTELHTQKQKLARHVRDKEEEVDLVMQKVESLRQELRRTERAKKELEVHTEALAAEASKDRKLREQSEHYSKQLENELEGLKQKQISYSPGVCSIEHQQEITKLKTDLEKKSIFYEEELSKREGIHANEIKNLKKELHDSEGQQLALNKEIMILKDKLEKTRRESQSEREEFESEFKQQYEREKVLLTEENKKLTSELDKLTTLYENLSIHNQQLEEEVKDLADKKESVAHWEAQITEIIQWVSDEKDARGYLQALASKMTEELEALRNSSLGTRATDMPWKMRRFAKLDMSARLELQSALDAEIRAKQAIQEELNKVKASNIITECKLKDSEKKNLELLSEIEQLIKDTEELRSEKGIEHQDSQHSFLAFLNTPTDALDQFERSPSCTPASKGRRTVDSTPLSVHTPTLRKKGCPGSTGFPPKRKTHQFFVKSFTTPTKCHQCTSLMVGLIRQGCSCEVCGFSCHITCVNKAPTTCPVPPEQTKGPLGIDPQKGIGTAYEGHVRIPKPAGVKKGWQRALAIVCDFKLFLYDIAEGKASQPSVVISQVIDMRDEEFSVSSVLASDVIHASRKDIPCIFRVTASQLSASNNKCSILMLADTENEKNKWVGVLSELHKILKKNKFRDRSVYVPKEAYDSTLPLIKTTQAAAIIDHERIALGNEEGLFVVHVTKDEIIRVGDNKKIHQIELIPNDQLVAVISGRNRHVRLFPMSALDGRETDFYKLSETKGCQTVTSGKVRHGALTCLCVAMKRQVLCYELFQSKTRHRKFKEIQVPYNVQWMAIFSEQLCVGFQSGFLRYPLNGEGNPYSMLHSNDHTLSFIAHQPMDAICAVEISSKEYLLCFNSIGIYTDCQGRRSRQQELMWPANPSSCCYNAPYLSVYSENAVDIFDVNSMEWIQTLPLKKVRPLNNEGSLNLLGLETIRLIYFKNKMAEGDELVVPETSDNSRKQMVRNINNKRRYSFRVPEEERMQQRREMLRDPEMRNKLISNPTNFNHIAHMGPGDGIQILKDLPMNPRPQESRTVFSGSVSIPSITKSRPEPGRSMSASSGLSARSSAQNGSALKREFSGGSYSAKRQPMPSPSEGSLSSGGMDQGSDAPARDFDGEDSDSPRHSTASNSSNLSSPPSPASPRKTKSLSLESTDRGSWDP

[11] = molecular target: Cyclin-dependent kinase 5/CDK5 activator 1 (Homo sapiens) (UniProt Q00535+Q15078); test: Inhibition of His-tagged full-length human CDK5/p35 expressed in baculovirus system at 100 nM by Z-lyte assay
Chain of Cyclin-dependent kinase 5/CDK5 activator 1 (Homo sapiens) (Q00535 whole entry): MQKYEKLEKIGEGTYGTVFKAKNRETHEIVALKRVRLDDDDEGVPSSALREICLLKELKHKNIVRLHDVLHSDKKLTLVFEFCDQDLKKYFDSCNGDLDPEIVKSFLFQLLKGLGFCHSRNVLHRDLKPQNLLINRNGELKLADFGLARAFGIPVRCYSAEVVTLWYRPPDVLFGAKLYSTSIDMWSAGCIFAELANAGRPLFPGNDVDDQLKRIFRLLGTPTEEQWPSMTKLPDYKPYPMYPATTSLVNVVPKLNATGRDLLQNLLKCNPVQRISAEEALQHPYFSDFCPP
Chain of Cyclin-dependent kinase 5/CDK5 activator 1 (Homo sapiens) (Q15078 99-307 partner limits assumed): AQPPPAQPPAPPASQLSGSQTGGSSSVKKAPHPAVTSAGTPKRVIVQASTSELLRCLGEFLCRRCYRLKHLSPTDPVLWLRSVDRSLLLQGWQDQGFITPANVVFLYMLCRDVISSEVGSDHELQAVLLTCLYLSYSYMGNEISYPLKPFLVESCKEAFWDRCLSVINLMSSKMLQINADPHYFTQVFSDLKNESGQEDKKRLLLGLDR

[12] = system: GSC; test: Antiproliferative activity against human GSC cells at 0.001 to 1 uM after 4 days by MTS assay; type: functional, cell-based
[13] = system: RAF proto-oncogene serine/threonine-protein kinase (Homo sapiens), P04049 [Y340D,Y341D]; test: Inhibition of catalytic GST-tagged human RAF1 Y340D/Y341D double mutant expressed in baculovirus system at 100 nM by Z-lyte assay
Chain of RAF proto-oncogene serine/threonine-protein kinase (Homo sapiens), P04049 [Y340D,Y341D] (P04049 whole entry Y340D/Y341D): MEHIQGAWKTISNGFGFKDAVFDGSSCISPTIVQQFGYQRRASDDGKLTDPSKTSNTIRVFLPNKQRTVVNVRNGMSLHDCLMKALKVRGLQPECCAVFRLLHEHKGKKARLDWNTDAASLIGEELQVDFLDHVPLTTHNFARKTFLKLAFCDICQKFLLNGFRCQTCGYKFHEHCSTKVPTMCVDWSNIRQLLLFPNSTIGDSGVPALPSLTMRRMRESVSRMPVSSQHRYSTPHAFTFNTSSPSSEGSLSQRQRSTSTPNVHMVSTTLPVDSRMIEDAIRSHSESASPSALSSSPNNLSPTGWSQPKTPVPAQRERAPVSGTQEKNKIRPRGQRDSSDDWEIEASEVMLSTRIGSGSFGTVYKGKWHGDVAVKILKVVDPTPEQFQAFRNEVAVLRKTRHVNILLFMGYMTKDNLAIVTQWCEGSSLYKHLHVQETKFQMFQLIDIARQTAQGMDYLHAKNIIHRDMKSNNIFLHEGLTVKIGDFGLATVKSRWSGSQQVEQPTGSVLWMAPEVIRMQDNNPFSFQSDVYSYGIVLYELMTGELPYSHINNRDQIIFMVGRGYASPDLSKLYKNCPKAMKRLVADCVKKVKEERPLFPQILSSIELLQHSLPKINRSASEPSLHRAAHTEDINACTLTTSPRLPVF

[14] = molecular target: T1, 3-phosphoinositide-dependent protein kinase 1 (Homo sapiens) (UniProt O15530); test: Inhibition of PDK1 in human GSC cells assessed as reduction in AKT phosphorylation at Thr308 residue at 10 uM measured at 120 mins by ELISA relative to control; type: cell-based
T1 sequence (whole entry): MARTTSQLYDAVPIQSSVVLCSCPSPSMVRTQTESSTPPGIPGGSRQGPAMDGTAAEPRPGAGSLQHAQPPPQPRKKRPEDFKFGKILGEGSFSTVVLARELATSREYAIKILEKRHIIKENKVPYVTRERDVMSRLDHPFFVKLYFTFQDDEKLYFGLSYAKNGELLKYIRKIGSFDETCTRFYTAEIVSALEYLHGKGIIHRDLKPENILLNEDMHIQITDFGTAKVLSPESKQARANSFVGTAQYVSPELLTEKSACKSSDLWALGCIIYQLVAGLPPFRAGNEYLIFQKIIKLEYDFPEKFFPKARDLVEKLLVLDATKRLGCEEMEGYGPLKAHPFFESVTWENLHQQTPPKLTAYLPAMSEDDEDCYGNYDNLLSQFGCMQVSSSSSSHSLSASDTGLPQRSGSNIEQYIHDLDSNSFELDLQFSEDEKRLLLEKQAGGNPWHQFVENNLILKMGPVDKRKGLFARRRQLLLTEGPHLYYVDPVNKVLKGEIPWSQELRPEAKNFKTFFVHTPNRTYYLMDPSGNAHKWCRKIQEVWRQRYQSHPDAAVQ

In the case of `O=C(CNC(=O)c1cccn(Cc2ccc(F)c(F)c2)c1=O)Nc1ccc2c(c1)/C(=C/c1cnc[nH]1)C(=O)N2`, the inhibition [1] is reported as -8%, the inhibition [2] is reported as 7% and the inhibition [3] is reported as -10%. It also gave an Activity [4] of 5.65%, an inhibition [5] of 0% and an inhibition [6] of 3%. For the same compound, the Activity [7] was 58.6%, the inhibition [8] was -8% and the inhibition [9] was 2%. The inhibition [10] was -3%, the inhibition [11] was 2% and the Activity [12] was “Active”. It also gave an inhibition [13] of 10% and an inhibition [14] of 80.4%.
